Reference: PubChem BioAssay AID1259407 (Chemical Carcinogenesis Research Information System (CCRIS), 2018)
Activity calls are given as the source filed them. How the calls were made is not given here.

System: CCRIS mutagenicity, Ames/micronucleus/aberration tests
Assay: CCRIS mutagenicity studies
[1] = Test System: AMES SALMONELLA TYPHIMURIUM, Strain/Indicator: TA98, Metabolic Activation: NONE, Method: PREINCUBATION
[2] = Test System: AMES SALMONELLA TYPHIMURIUM, Strain/Indicator: TA100, Metabolic Activation: NONE, Method: PREINCUBATION
[3] = Test System: AMES SALMONELLA TYPHIMURIUM, Strain/Indicator: TA100, Metabolic Activation: RAT, LIVER, S-9, AROCLOR 1254, Method: PREINCUBATION
[4] = Test System: AMES SALMONELLA TYPHIMURIUM, Strain/Indicator: TA98, Metabolic Activation: NONE, Method: STANDARD PLATE
[5] = Test System: AMES SALMONELLA TYPHIMURIUM, Strain/Indicator: TA100, Metabolic Activation: NONE, Method: STANDARD PLATE
[6] = Test System: AMES SALMONELLA TYPHIMURIUM, Strain/Indicator: TA100, Metabolic Activation: RAT, LIVER, S-9, AROCLOR 1254, Method: STANDARD PLATE
[7] = Test System: AMES SALMONELLA TYPHIMURIUM, Strain/Indicator: TA1535, Metabolic Activation: NONE, Method: PREINCUBATION
[8] = Test System: AMES SALMONELLA TYPHIMURIUM, Strain/Indicator: TA1537, Metabolic Activation: NONE, Method: PREINCUBATION

SMILES: CC(=O)OCc1cccc([N+](=O)[O-])c1
- mutagenic call [1]: inactive; negative
- mutagenic call [2]: inactive; negative
- mutagenic call [3]: inactive; negative

SMILES: COc1cccc2c1C(=O)c1c(O)c3c(c(O)c1C2=O)CC(O)(C(C)=O)CC3OC1CC(N2CCOCC2C#N)C(O)C(C)O1 (centres undefined)
- mutagenic call (Test System: AMES SALMONELLA TYPHIMURIUM, Strain/Indicator: TA98, Metabolic Activation: NONE): inactive; negative
- mutagenic call (Test System: AMES SALMONELLA TYPHIMURIUM, Strain/Indicator: TA98, Metabolic Activation: RAT, LIVER, S-9, AROCLOR 1254): active; positive
- mutagenic call (Test System: CHINESE HAMSTER V-79, Strain/Indicator: V-79/8-AZAGUANINE, Metabolic Activation: NONE): active; positive
- mutagenic call (Test System: CHINESE HAMSTER V-79, Strain/Indicator: V-79/8-AZAGUANINE, Metabolic Activation: RAT, HEPATOCYTES): inactive; negative
- mutagenic call (Test System: UDS RAT HEPATOCYTES, Strain/Indicator: THY INCORP, Metabolic Activation: NONE, Method: AUTOMATIC COLONY COUNTER): active; positive

SMILES: Cc1ccc(N=Nc2c(O)ccc3ccccc23)c(S(=O)(=O)O)c1
- mutagenic call [4]: inactive; negative
- mutagenic call (Test System: AMES SALMONELLA TYPHIMURIUM, Strain/Indicator: TA98, Metabolic Activation: RAT, LIVER, S-9, Method: STANDARD PLATE): inactive; negative
- mutagenic call [5]: inactive; negative
- mutagenic call (Test System: AMES SALMONELLA TYPHIMURIUM, Strain/Indicator: TA100, Metabolic Activation: RAT, LIVER, S-9, Method: STANDARD PLATE): inactive; negative

SMILES: OCC(O)C1CO1 (centres undefined)
- mutagenic call (End Point: IN VIVO MICRONUCLEUS, Test System: SPERMATID, Species: RAT, Strain/Sex: SPRAGUE-DAWLEY/MALE, Route: IP INJECTION): active; positive
- mutagenic call [5]: active; positive
- mutagenic call [6]: active; positive

SMILES: O=C(O)c1cc(Cl)cc2cccnc12
- mutagenic call [4]: inactive; negative
- mutagenic call (Test System: AMES SALMONELLA TYPHIMURIUM, Strain/Indicator: TA98, Metabolic Activation: RAT, LIVER, S-9, AROCLOR 1254, Method: STANDARD PLATE): active; positive
- mutagenic call [5]: inactive; negative
- mutagenic call [6]: active; positive
- mutagenic call (Test System: AMES SALMONELLA TYPHIMURIUM, Strain/Indicator: TA1535, Metabolic Activation: NONE, Method: STANDARD PLATE): inactive; negative
- mutagenic call (Test System: AMES SALMONELLA TYPHIMURIUM, Strain/Indicator: TA1535, Metabolic Activation: RAT, LIVER, S-9, AROCLOR 1254, Method: STANDARD PLATE): inactive; negative
- mutagenic call (Test System: AMES SALMONELLA TYPHIMURIUM, Strain/Indicator: TA1537, Metabolic Activation: NONE, Method: STANDARD PLATE): inactive; negative
- mutagenic call (Test System: AMES SALMONELLA TYPHIMURIUM, Strain/Indicator: TA1537, Metabolic Activation: RAT, LIVER, S-9, AROCLOR 1254, Method: STANDARD PLATE): active; positive

SMILES: COc1ccc(N(CCCl)CCCl)c2cc([N+](=O)[O-])oc12
- mutagenic call (Test System: AMES SALMONELLA TYPHIMURIUM, Strain/Indicator: TA100(NR), Metabolic Activation: NONE, Method: STANDARD PLATE): inactive; negative
- mutagenic call (Test System: AMES SALMONELLA TYPHIMURIUM, Strain/Indicator: TA100(NR), Metabolic Activation: RAT, LIVER, S-9, AROCLOR 1254, Method: STANDARD PLATE): active; positive
- mutagenic call [5]: active; positive
- mutagenic call [6]: active; positive

SMILES: C=CCOCC1CO1 (centres undefined)
- mutagenic call (End Point: IN VITRO CHROMOSOMAL ABERRATIONS, Test System: CHL CELLS, Metabolic Activation: NONE): active; positive (structural changes)
- mutagenic call (End Point: IN VITRO CHROMOSOMAL ABERRATIONS, Test System: CHL CELLS, Metabolic Activation: RAT, LIVER, S-9, SODIUM PHENOBARBITAL AND 5,6-BENZOFLAVONE): active; positive (structural changes
- mutagenic call (Test System: AMES SALMONELLA TYPHIMURIUM, Strain/Indicator: TA98, Metabolic Activation: HAMSTER, LIVER, S-9, AROCLOR 1254, Method: PREINCUBATION): inactive; negative
- mutagenic call [1]: inactive; negative
- mutagenic call (Test System: AMES SALMONELLA TYPHIMURIUM, Strain/Indicator: TA98, Metabolic Activation: RAT, LIVER, S-9, AROCLOR 1254, Method: PREINCUBATION): inactive; negative
- mutagenic call (Test System: AMES SALMONELLA TYPHIMURIUM, Strain/Indicator: TA100, Metabolic Activation: HAMSTER, LIVER, S-9, AROCLOR 1254, Method: PREINCUBATION): active; positive
- mutagenic call [2]: active; positive
- mutagenic call [3]: active; positive
- mutagenic call (Test System: AMES SALMONELLA TYPHIMURIUM, Strain/Indicator: TA1535, Metabolic Activation: HAMSTER, LIVER, S-9, AROCLOR 1254, Method: PREINCUBATION): active; positive
- mutagenic call [7]: active; positive
- mutagenic call (Test System: AMES SALMONELLA TYPHIMURIUM, Strain/Indicator: TA1535, Metabolic Activation: RAT, LIVER, S-9, AROCLOR 1254, Method: PREINCUBATION): active; positive
- mutagenic call (Test System: AMES SALMONELLA TYPHIMURIUM, Strain/Indicator: TA1537, Metabolic Activation: HAMSTER, LIVER, S-9, AROCLOR 1254, Method: PREINCUBATION): inactive; negative
- mutagenic call [8]: inactive; negative
- mutagenic call (Test System: AMES SALMONELLA TYPHIMURIUM, Strain/Indicator: TA1537, Metabolic Activation: RAT, LIVER, S-9, AROCLOR 1254, Method: PREINCUBATION): inactive; negative

SMILES: COc1cccc([N+](=O)[O-])c1
- mutagenic call [1]: inactive; negative
- mutagenic call (Test System: AMES SALMONELLA TYPHIMURIUM, Strain/Indicator: TA98, Metabolic Activation: RAT, LIVER, S-9, KANECHLOR 500, Method: PREINCUBATION): inactive; negative
- mutagenic call (Test System: AMES SALMONELLA TYPHIMURIUM, Strain/Indicator: TA98, Method: PREINCUBATION): inactive; negative
- mutagenic call [2]: inactive; negative
- mutagenic call (Test System: AMES SALMONELLA TYPHIMURIUM, Strain/Indicator: TA100, Metabolic Activation: RAT, LIVER, S-9, KANECHLOR 500, Method: PREINCUBATION): inactive; negative
- mutagenic call (Test System: AMES SALMONELLA TYPHIMURIUM, Strain/Indicator: TA100, Method: PREINCUBATION): inactive; negative
- mutagenic call [7]: inactive; negative
- mutagenic call (Test System: AMES SALMONELLA TYPHIMURIUM, Strain/Indicator: TA1535, Method: PREINCUBATION): inactive; negative
- mutagenic call [8]: inactive; negative
- mutagenic call (Test System: AMES SALMONELLA TYPHIMURIUM, Strain/Indicator: TA1537, Method: PREINCUBATION): inactive; negative
- mutagenic call (Test System: AMES SALMONELLA TYPHIMURIUM, Strain/Indicator: TA1538, Metabolic Activation: NONE, Method: PREINCUBATION): inactive; negative
- mutagenic call (Test System: AMES SALMONELLA TYPHIMURIUM, Strain/Indicator: TA1538, Method: PREINCUBATION): inactive; negative

SMILES: CCCCN(CCCC(=O)O)N=O
- mutagenic call (End Point: IN VITRO MICRONUCLEUS, Test System: CHL/IU CELLS, Metabolic Activation: NONE): active; positive
- mutagenic call (Test System: AMES SALMONELLA TYPHIMURIUM, Strain/Indicator: TA100, Metabolic Activation: BOVINE, URINARY BLADDER, S-9, Method: PREINCUBATION): inactive; negative
- mutagenic call (Test System: AMES SALMONELLA TYPHIMURIUM, Strain/Indicator: TA100, Metabolic Activation: PIG, URINARY BLADDER, S-9, Method: PREINCUBATION): inactive; negative
- mutagenic call (Test System: AMES SALMONELLA TYPHIMURIUM, Strain/Indicator: TA100, Metabolic Activation: RAT, LIVER, MICROSOMES, SODIUM PHENOBARBITONE, Method: PREINCUBATION): inactive; negative
- mutagenic call (Test System: AMES SALMONELLA TYPHIMURIUM, Strain/Indicator: TA100, Metabolic Activation: RAT, LIVER, S-9, AROCLOR, Method: PREINCUBATION): inactive; negative
- mutagenic call [7]: inactive; negative
- mutagenic call (Test System: AMES SALMONELLA TYPHIMURIUM, Strain/Indicator: TA1535, Metabolic Activation: RAT, LIVER, MICROSOMES, SODIUM PHENOBARBITONE, Method: PREINCUBATION): inactive; negative
- mutagenic call (Test System: AMES SALMONELLA TYPHIMURIUM, Strain/Indicator: TA1535, Metabolic Activation: RAT, LIVER, S-9, AROCLOR, Method: PREINCUBATION): inactive; negative
- mutagenic call (Test System: AMES SALMONELLA TYPHIMURIUM, Strain/Indicator: TA1535, Metabolic Activation: RAT, LIVER, S-9, KC500 OR PHENOBARBITAL, Method: LIQUID SUSPENSION): active; positive

SMILES: COc1cc2ccnc3c2c(c1OC)-c1ccccc1C3=O
- mutagenic call (Test System: AMES SALMONELLA TYPHIMURIUM, Strain/Indicator: TA100, Metabolic Activation: RAT, LIVER, S-9, PHENOBARBITAL AND BETA-NAPHTHOFLAVONE, Method: PREINCUBATION): active; positive

SMILES: COC(=O)C(=Cc1ccc(Br)o1)[N+](=O)[O-]
- mutagenic call [1]: inactive; negative
